Measurements as given in patent publication US9242988B2, “2′-cyano substituted nucleoside derivatives and methods of use thereof for the treatment of viral diseases” (Merck Sharp & Dohme Corp., priority 2012, dated 2016).
Where two headings read alike, the source gives them in different places.

Tested on: HCV replicon cells (1b)
Test: Cell-Based HCV Replicon Assay
Protocol: To measure cell-based anti-HCV activity of selected compounds of the present invention, replicon cells were seeded at 5000 cells/well in 96-well collagen I-coated Nunc plates in the presence of the test compound. Various concentrations of test compound, typically in 10 serial 2-fold dilutions, were added to the assay mixture, with the starting concentration ranging from 250 μM to 1 μM. The final concentration of dimethylsulfoxide was 0.5%, fetal bovine serum was 5%, in the assay media. Cells were harvested on day 3 by the addition of 1× cell lysis buffer (Ambion cat #8721). The replicon RNA level was measured using real time PCR (Taqman assay). The amplicon was located in 5B. The PCR primers were: 5B.2F, […] (SEQ ID. NO. 1); 5B.2R, […] (SEQ ID. NO. 2); the probe sequence was FAM-labeled […] (SEQ ID. NO. 3). GAPDH RNA was used as endogenous control and was amplified in the same reaction as NS5B (multiplex PCR) using primers and VIC-labeled probe recommended by the manufacturer (PE Applied Biosystem). The real-time RT-PCR reactions were run on ABI PRISM 7900HT Sequence Detection System using the following program: 48° C. for 30 minutes, 95° C. for 10 minutes, 40 cycles of 95° C. for 15 sec, 60° C. for 1 minute. The ΔCT values (CT5B-CTGAPDH) were plotted against the concentration of test compound and fitted to the sigmoid dose-response model using XLfit4 (MDL). […] Alternatively, to quantitate the absolute amount of replicon RNA, a standard curve was established by including serially diluted T7 transcripts of replicon RNA in the Taqman assay. All Taqman reagents were from PE Applied Biosystems. Such an assay procedure was described in detail in e.g. Malcolm et al., Antimicrobial Agents and Chemotherapy 50: 1013-1020 (2006).

[1] = replicon RNA level by real time PCR (Taqman), cells harvested on day 3; read-out: 1b EC50
[2] = Hepatitis C virus, 72 h, replicon RNA level by real time PCR (Taqman), cells harvested on day 3; read-out: 1b EC50
[3] = Hepatitis C virus, 72 h, read-out: 1b EC50

CC(C)(C)COP1(=O)OC[C@H]2O[C@@H](c3ccc4c(N)ncnn34)[C@](C)(C#N)[C@@H]2O1 (single isomer, unassigned) [Compound 19]
EC50 [1]: 46 µM

CC(C)OP1(=O)OC[C@H]2O[C@@H](c3cnc4c(N)ncnn34)[C@](C)(C#N)[C@@H]2O1 (single isomer, unassigned) [Compound 20]
EC50 [2]: 77 µM

CC(C)OC(=O)[C@H](C)NP(=O)(OC[C@H]1O[C@@H](c2cnc3c(N)ncnn23)[C@](C)(C#N)[C@@H]1O)Oc1ccccc1 (single isomer, unassigned) [Compound 15]
EC50 (read-out: 1b EC50; replicon RNA level by real time PCR (Taqman), cells harvested on day 3): > 100 µM

CC(C)OC(=O)[C@H](C)NP(=O)(OC[C@H]1O[C@@H](c2ccc3c(N)ncnn23)[C@](C)(C#N)[C@@H]1O)Oc1ccccc1 (single isomer, unassigned) [Compound 11]
EC50 [3]: 35 µM

CC(C)(C)COP1(=O)OC[C@H]2O[C@@H](c3ccc4c(N)ncnn34)[C@](C)(C#N)[C@@H]2O1 (single isomer, unassigned) [Compound 18]
EC50 [2]: 33 µM

CC(C)OC(=O)[C@H](C)NP(=O)(OC[C@H]1O[C@@H](c2cnc3c(N)ncnn23)[C@](C)(C#N)[C@@H]1O)Oc1ccccc1 (single isomer, unassigned) [Compound 14]
EC50 [3]: > 100 µM

CC(C)OP1(=O)OC[C@H]2O[C@@H](c3cnc4c(N)ncnn34)[C@](C)(C#N)[C@@H]2O1 (single isomer, unassigned) [Compound 21]
EC50 [1]: > 100 µM

CC(C)OC(=O)COP(=O)(N[C@@H](C)C(=O)OC(C)C)OC[C@H]1O[C@@H](c2ccc3c(N)ncnn23)[C@](C)(C#N)[C@@H]1O (single isomer, unassigned) [Compound 12]
EC50 [2]: > 100 µM
